How the values were obtained:
phospho-p70S6K = assay: Western blot analysis of p70S6K phosphorylation in human cancer cell lines; type: cell-based; conditions: 24 hours; for phospho-p70S6K: 786-O and MDA-MB-231 cells; for phosphorylation of p70S6K: 786-O EveR and HCT116 cells, 1 μM (siRNA 50 nM)
Experimental: (§1) Total protein extracts obtained from cell cultures or tumor specimens were resolved by 4-15% SDS-PAGE and probed with anti-human, polyclonal pMet Y1349, polyclonal Met, monoclonal pp70S6K T412 and p70S6K (Merck-Millipore Darmstadt, Germany), monoclonal actin (Sigma-Aldrich, Milan, Italy), monoclonal FKBP12, polyclonal mTOR, Raptor, and Rictor. Co-immunoprecipitation analyses were performed with anti-Met; membranes were blotted with anti-FKBP12. The total lysate from 786-O, 786-O EveR and HCT116 cells served as positive control. Immunoreactive proteins were visualized by enhanced chemiluminescence (Pierce, Rockford, IL, USA). Densitometry was performed with Image J software (NIH, Bethesda, MD, USA).

phospho-Met = assay: Western blot analysis of Met phosphorylation in human cancer cell lines; type: cell-based; conditions: 24 hours; for Met phosphorylation: 0.5 μM; for phosphorylation of Met: 786-O EveR and HCT116 cells, 1 μM (siRNA 50 nM)
Experimental: as §1

[1] = system: everolimus-resistant HCT116 cells; assay: Subcutaneous murine colorectal cancer model (HCT116 xenograft); conditions: for Median survival: subcutaneous HCT116 xenograft, 10 mice/group
Description: We subcutaneously xenografted everolimus-resistant HCT116 cells into 50 four- to six-week-old female BALB/c athymic nu+/nu+ (nude) mice (Charles River Laboratories, Milan, Italy). Forty animals were used to carry out the subcutaneous colorectal cancer model experiment; when tumors reached a mean volume of 1 cm^3, 10 animals were euthanized, tumors were divided into 2-mm-sized pieces and microsurgically implanted in the cecum of 40 Balb/C nude mice for the orthotopic experiment. See Supplementary Methods for further details about the surgical procedure and the treatment schedule. […]

[2] = system: T47D cells with Met M1268T mutant; assay: Cell density assay (MTT), Met-transduced T47D; type: cell-based, human
Experimental: (§2) The percentage of cell density was determined using the 3-(4,5-dimethylthiazol-2-yl)-2,5-diphenyltetrazolium bromide (MTT) assay according to the manufacturer's instructions (Sigma-Aldrich, Milan, Italy). […]
(§3) (iii) an active conformation. The resulting selected Met [Follenzi A, Nat Genet. 2000]. […]
(§4) We used the pRRL.sin.PPT.hCMV.GFP.
(§5) Cα] at the 80 loop level (frame 13). To generate the Met/pre vector as control. […]

T47D cells with wt Met = assay: Cell density assay (MTT), Met-transduced T47D; type: cell-based, human
Experimental: as §2, §3, §4, §5

[3] = system: T47D cells with Met Y1235D mutant; assay: Cell density assay (MTT), Met-transduced T47D; type: cell-based, human
Experimental: as §2, §3, §4, §5

[4] = system: everolimus-resistant HCT116 cells; assay: Orthotopic murine colorectal cancer model (HCT116 in cecum); type: in vivo, Balb/C nude mice; conditions: orthotopic HCT116, four weeks after tumor implantation
Experimental: The cecum was then placed
Seven days after implantation, […]
p/6 x larger diameter x (smaller diameter)2. […]
diameter was assessed with ultrasonography (VEVO,
Committee. Primary tumors in the cecum were excised
The final tumor was measured with a caliper surgical site was isolated in a sterile fashion.
J Am Chem Soc. 2003; 125: 8827-8837.
Uncoupling signal transducers from oncogenic MET 6.
2. […] 2000; 25: 217-222.
Unbinding pathways from the glucocorticoid receptor shed 7. Michnick SW, Rosen MK, Wandless TJ, Karplus M, […]
Solution structure of FKBP, a rotamase a naturally occurring, clinically relevant mutant receptor. J enzyme and receptor for FK506 and rapamycin. Science.
3. […] Mustafi SM, LeMaster DM, Hernández G. Differential […]
cytoreductive antitumor activity in vivo.
HADDOCK2.0 on the CAPRI targets. Proteins.
726-733. JR, Soisson SM, Lumb KJ. Structural basis for selective

Met Y1230H = molecular target: T1, Met Y1230H (Homo sapiens, UniProt P08581, Y1230H); assay: In vitro Met kinase inhibition assay (ProQinase, radiometric 33PanQinase); type: biochemical
T1 construct: purchased ProQinase GmbH (screening service)
Experimental: (§6) In vitro Met kinase inhibition assay equilibrated using NAMD2.8 [Phillips JC, J Comput Chem.
(§7) The Met kinase inhibition by everolimus was analyzed 2005], and the final MD simulation was conducted applying […]
(§8) ProQinase (ProQinase GmbH, Freiburg, Germany). Briefly, J Med Chem. 2013].
(§9) -10 - trajectories. The complex was aligned on the Cα atoms of different concentrations (standard range: 3x10M–1x10 Met, while the backbone atoms Root-mean-square deviation 5M; semilog dilutions) against human recombinant wt
(§10) Met and nine Met mutant protein kinases, and IC values (RMSD) of FKBP12 was measured and used to cluster the 50 trajectories. The cluster analysis was performed using ptraj […]
(§11) All assays were Å. Finally, the representative structure of the most populated performed at the corresponding apparent ATP Km of each cluster was choosen as the final Met/FKBP12 complex. […]

Met Y1230D = molecular target: T2, Met Y1230D (Homo sapiens, UniProt P08581, Y1230D); assay: as above; type: biochemical
T2 construct: purchased ProQinase GmbH (screening service)
Experimental: as §6, §7, §8, §9, §10, §11

Met D1228H = molecular target: T3, Met D1228H (Homo sapiens, UniProt P08581, D1228H); assay: as above; type: biochemical
T3 construct: purchased ProQinase GmbH (screening service)
Experimental: as §6, §7, §8, §9, §10, §11

Met F1200I = molecular target: T4, Met F1200I (Homo sapiens, UniProt P08581, F1200I); assay: as above; type: biochemical
T4 construct: purchased ProQinase GmbH (screening service)
Experimental: as §6, §7, §8, §9, §10, §11

Met M1250T = molecular target: T5, Met M1250T (Homo sapiens, UniProt P08581, M1250T); assay: as above; type: biochemical
T5 construct: purchased ProQinase GmbH (screening service)
Experimental: as §6, §7, §8, §9, §10, §11

Met Y1230A = molecular target: T6, Met Y1230A (Homo sapiens, UniProt P08581, Y1230A); assay: as above; type: biochemical
T6 construct: purchased ProQinase GmbH (screening service)
Experimental: as §6, §7, §8, §9, §10, §11

FKBP12/Met complex = molecular target: T7, FKBP12/Met complex (Homo sapiens, UniProt P62942); assay: Co-immunoprecipitation of FKBP12 with anti-Met antibody; type: cell-based; conditions: 0.5 μM, 24 hours
T7 construct: immunoprecipitated total cell lysates from everolimus-treated and -untreated 786-O cells; endogenous in cells; host or cells: 786-O (also 786-O EveR and HCT116)
Experimental: as §1

[5] = system: 786-O EveR (everolimus-resistant) cells; assay: Cell density assay (MTT); type: cell-based; conditions: Homo sapiens, 786-0, data not shown, read-out: concentration causing 50% reduction of cell density
Experimental: as §2

PC-9 cells = assay: Cell density assay (MTT); type: cell-based; conditions: Homo sapiens, PC-9, 72 hours, read-out: concentration causing 50% reduction of cell density
Experimental: (§12) The percentage of cell density was determined using the 3-(4,5-dimethylthiazol-2-yl)-2,5-diphenyltetrazolium bromide (MTT) assay according to the manufacturer's instructions (Sigma-Aldrich, Milan, Italy).

ACHN cells = assay: Cell density assay (MTT); type: cell-based; conditions: Homo sapiens, 72 hours, read-out: concentration causing 50% reduction of cell density
Experimental: as §12

MDA-MB-361 cells = assay: Cell density assay (MTT); type: cell-based; conditions: Homo sapiens, MDA-MB-361, 72 hours, read-out: concentration causing 50% reduction of cell density
Experimental: as §12

MDA-MB-231 cells = assay: Cell density assay (MTT); type: cell-based; conditions: Homo sapiens, MDA-MB-231, 72 hours, read-out: concentration causing 50% reduction of cell density
Experimental: as §12

786-O cells = assay: Cell density assay (MTT); type: cell-based; conditions: Homo sapiens, 786-0, 72 hours, read-out: concentration causing 50% reduction of cell density
Experimental: as §12

HCT116 cells = assay: Cell density assay (MTT); type: cell-based; conditions: Homo sapiens, HCT-116; HCT116, data not shown; read-out: concentration causing 50% reduction of cell density
Experimental: as §12

NCI-H1975 cells = assay: Cell density assay (MTT); type: cell-based; conditions: Homo sapiens, NCI-H1975, 72 hours, read-out: concentration causing 50% reduction of cell density
Experimental: as §12

Met Wild-type = molecular target: T8, Met Wild-type (Homo sapiens, UniProt P08581); assay: In vitro Met kinase inhibition assay (ProQinase, radiometric 33PanQinase); type: biochemical; conditions: Met TK Wild-type; 0.3 nM to 10 μM, singlicate; apparent ATP Km
T8 construct: purchased ProQinase GmbH (screening service)
Experimental: as §6, §7, §8
(§13) -10 - trajectories. The complex was aligned on the Cα atoms of different concentrations (standard range: 3x10M–1x10 Met, while the backbone atoms Root-mean-square deviation 5M; semilog dilutions) against human recombinant wt […]
as §11

Met Y1230C = molecular target: T9, Met Y1230C (Homo sapiens, UniProt P08581, Y1230C); assay: as above; type: biochemical
T9 construct: purchased ProQinase GmbH (screening service)
Experimental: as §6, §7, §8, §13, §11

Met D1228N = molecular target: T10, Met D1228N (Homo sapiens, UniProt P08581, D1228N); assay: as above; type: biochemical
T10 construct: purchased ProQinase GmbH (screening service)
Experimental: as §6, §7, §8, §13, §11

[6] = day 42, 6 weeks after cell injection, everolimus 5 mg/kg per os, PHA665752 20 mg/kg i.v., five times a week for 2 weeks

T7 sequence (P62942 2-108 limits assumed, one chain of several): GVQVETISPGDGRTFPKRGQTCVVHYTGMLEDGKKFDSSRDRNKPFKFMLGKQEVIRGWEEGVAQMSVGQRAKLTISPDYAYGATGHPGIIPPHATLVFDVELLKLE
T3 sequence (P08581 25-1390 D1228H): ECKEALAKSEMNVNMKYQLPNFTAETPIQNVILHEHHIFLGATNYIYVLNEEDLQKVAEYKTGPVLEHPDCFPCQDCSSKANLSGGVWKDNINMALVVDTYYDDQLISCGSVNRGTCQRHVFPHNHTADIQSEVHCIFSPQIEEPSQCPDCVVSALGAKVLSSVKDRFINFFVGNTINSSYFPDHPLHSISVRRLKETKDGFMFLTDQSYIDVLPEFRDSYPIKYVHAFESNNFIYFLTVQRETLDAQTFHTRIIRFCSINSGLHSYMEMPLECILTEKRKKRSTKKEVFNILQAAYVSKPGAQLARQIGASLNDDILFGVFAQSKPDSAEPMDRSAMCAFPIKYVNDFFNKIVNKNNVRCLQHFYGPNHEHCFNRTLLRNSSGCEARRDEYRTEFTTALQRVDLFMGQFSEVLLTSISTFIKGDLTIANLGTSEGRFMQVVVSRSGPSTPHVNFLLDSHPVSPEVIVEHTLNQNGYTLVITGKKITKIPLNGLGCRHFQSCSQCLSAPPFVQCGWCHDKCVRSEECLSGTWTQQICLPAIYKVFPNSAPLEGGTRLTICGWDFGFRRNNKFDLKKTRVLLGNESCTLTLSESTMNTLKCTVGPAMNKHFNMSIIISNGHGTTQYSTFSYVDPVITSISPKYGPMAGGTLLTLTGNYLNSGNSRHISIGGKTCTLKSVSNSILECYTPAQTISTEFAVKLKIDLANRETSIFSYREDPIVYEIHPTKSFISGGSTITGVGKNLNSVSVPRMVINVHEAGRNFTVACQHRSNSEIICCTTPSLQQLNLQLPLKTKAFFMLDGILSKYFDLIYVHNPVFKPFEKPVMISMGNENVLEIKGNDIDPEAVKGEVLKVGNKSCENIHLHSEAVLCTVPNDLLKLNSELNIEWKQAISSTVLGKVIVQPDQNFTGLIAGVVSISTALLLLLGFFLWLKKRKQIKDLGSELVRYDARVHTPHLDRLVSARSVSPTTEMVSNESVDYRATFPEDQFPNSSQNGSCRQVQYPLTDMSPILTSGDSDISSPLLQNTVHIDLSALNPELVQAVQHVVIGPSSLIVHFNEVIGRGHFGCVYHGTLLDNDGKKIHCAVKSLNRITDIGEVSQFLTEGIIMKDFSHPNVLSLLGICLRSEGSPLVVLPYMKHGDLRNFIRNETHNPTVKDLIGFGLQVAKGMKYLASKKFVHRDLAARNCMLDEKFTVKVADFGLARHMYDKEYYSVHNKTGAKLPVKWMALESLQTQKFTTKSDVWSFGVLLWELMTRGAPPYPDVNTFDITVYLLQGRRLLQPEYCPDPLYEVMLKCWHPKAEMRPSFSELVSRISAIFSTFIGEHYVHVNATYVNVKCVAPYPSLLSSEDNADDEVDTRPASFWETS
T6 sequence (P08581 25-1390 Y1230A): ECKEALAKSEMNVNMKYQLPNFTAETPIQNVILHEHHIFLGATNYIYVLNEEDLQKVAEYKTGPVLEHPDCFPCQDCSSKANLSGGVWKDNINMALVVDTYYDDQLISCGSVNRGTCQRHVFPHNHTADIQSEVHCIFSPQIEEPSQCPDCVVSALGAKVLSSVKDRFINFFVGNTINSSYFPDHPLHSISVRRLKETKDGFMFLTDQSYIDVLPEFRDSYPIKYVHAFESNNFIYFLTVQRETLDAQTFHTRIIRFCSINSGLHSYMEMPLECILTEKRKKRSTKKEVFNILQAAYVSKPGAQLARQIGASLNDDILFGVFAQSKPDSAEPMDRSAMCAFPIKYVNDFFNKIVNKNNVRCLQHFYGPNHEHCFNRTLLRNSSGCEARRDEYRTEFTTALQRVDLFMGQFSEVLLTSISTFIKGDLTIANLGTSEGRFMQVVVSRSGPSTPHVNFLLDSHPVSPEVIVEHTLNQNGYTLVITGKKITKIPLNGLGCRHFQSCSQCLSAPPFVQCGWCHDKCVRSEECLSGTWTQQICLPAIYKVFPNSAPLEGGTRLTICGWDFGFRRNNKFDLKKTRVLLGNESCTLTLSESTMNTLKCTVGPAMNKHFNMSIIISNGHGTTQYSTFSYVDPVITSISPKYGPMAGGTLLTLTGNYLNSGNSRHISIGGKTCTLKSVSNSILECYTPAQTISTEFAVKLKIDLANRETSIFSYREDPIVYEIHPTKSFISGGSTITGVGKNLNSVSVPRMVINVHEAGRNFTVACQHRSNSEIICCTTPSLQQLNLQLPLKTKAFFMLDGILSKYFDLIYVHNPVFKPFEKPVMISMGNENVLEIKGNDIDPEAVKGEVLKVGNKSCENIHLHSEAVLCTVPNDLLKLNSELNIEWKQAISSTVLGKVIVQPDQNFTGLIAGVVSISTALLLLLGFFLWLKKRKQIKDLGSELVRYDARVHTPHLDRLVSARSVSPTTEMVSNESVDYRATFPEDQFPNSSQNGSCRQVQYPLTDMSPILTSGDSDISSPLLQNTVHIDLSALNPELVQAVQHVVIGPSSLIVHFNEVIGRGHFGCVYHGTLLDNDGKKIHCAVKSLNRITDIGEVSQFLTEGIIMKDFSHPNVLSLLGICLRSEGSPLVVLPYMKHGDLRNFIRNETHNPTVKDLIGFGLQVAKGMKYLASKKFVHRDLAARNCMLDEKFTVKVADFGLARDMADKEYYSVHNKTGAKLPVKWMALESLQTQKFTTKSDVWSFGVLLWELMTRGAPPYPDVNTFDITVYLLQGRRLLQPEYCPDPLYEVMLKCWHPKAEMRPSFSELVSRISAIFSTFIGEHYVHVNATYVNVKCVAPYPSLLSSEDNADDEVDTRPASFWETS
T4 sequence (P08581 25-1390 F1200I): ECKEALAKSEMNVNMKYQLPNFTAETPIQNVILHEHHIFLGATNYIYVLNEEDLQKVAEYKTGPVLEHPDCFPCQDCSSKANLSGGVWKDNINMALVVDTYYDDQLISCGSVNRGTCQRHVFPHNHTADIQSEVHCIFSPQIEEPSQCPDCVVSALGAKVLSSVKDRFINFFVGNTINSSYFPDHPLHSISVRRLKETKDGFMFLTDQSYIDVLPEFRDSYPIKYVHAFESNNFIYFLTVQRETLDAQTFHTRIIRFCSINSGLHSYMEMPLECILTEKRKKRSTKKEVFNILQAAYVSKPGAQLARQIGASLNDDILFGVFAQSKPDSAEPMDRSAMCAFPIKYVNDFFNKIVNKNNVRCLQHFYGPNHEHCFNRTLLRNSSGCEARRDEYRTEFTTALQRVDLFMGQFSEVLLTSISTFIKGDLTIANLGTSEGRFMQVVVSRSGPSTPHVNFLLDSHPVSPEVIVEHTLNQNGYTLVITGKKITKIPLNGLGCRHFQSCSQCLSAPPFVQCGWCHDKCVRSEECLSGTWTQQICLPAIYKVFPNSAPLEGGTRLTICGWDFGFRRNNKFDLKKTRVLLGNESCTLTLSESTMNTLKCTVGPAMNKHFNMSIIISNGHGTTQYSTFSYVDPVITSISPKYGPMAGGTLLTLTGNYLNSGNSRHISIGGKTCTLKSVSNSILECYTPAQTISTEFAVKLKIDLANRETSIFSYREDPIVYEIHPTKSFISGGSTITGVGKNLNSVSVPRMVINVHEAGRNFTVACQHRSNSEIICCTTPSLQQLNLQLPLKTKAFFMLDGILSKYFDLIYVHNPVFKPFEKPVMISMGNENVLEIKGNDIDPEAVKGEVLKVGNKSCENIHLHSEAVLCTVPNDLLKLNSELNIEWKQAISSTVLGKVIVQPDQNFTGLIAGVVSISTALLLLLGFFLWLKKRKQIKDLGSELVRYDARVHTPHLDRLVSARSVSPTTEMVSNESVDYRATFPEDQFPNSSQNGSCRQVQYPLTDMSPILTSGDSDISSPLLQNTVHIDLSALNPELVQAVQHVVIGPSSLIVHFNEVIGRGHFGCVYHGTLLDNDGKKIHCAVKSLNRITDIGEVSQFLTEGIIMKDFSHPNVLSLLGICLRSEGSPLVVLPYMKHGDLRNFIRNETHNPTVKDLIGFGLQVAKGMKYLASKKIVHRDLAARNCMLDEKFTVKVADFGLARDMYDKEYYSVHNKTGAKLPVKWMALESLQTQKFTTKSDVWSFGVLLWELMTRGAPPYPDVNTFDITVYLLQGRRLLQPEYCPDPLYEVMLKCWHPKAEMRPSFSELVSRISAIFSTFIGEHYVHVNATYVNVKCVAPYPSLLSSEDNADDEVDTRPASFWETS

SMILES: COc1cccc2cc(-c3nc([C@H]4CC[C@H](C(=O)O)CC4)n4ncnc(N)c34)[nH]c12 [OSI-027]
- phospho-p70S6K (phospho-p70S6K; 0.5 μM): reduced phospho-p70S6K
- Met phosphorylation (phospho-Met; 786-O and MDA-MB-231 cells): neither PKI-587 nor OSI-027 inhibited Met phosphorylation

SMILES: Cc1[nH]c(/C=C2\C(=O)Nc3ccc(S(=O)(=O)Cc4c(Cl)cccc4Cl)cc32)c(C)c1C(=O)N1CCC[C@@H]1CN1CCCC1 [PHA665752]
- phosphorylation of p70S6K (phospho-p70S6K): reduced the phosphorylation of Met and p70S6K
- phosphorylation of Met (phospho-Met): reduced the phosphorylation of Met and p70S6K
- tumor growth inhibition [1, 6]: 85%
- tumor growth inhibition ([1]; end of the experiment, same regimen): 30%
- Median survival [1]: 57 days
- sensitivity to everolimus (cell density) ([2]; T47D Met M1268T, PHA665752 1 μM + everolimus 1 μM, 72 hours, P <0.01): significantly restored sensitivity to everolimus
- sensitivity to everolimus (cell density) (T47D cells with wt Met; T47D wt Met, PHA665752 1 μM + everolimus 1 μM, 72 hours, P <0.01): significantly restored sensitivity to everolimus
- sensitivity to everolimus (cell density) ([3]; T47D Met Y1235D, PHA665752 1 μM + everolimus 1 μM, 72 hours, P <0.01): significantly restored sensitivity to everolimus
- tumor volume [4]: greatly reduced
- tumor weight [4]: greatly reduced

SMILES: CN(C)C1CCN(C(=O)c2ccc(NC(=O)Nc3ccc(-c4nc(N5CCOCC5)nc(N5CCOCC5)n4)cc3)cc2)CC1 [PKI-587]
- phospho-p70S6K (phospho-p70S6K; 0.5 μM): reduced phospho-p70S6K
- Met phosphorylation (phospho-Met; 786-O and MDA-MB-231 cells): neither PKI-587 nor OSI-027 inhibited Met phosphorylation

SMILES: CO[C@H]1C[C@@H]2CC[C@@H](C)[C@@](O)(O2)C(=O)C(=O)N2CCCC[C@H]2C(=O)O[C@H]([C@H](C)C[C@@H]2CC[C@@H](OCCO)[C@H](OC)C2)CC(=O)[C@H](C)/C=C(\C)[C@@H](O)[C@@H](OC)C(=O)[C@H](C)C[C@H](C)/C=C/C=C/C=C/1C [everolimus]
- phosphorylation of p70S6K (phospho-p70S6K): did not affect the phosphorylation of Met or p70S6K
- p70S6K phosphorylation (phospho-p70S6K; renal, breast and lung everolimus-sensitive cell lines, 0.5 μM): decreased p70S6K phosphorylation
- phosphorylation of Met (phospho-Met): did not affect the phosphorylation of Met or p70S6K
- Met phosphorylation (phospho-Met; renal, breast and lung everolimus-sensitive cell lines): inhibition of Met phosphorylation
- tumor growth inhibition [1, 6]: 35%
- Median survival [1]: 37.5 days
- IC50 (Met Y1230H): > 10 µM
- IC50 (Met Y1230D): > 10 µM
- IC50 (Met D1228H): > 10 µM
- IC50 (Met F1200I): > 10 µM
- IC50 (Met M1250T): > 10 µM
- IC50 (Met Y1230A): > 10 µM
- amount of FKBP12 co-immunoprecipitated with Met (FKBP12/Met complex; 786-O cells): lower
- amount of FKBP12 co-immunoprecipitated with Met (FKBP12/Met complex; everolimus-resistant 786-O EveR and HCT116 cells): not reduced
- IC50 [5]: ≥ 5 µM
- IC50 (PC-9 cells): ≤ 0.5 µM
- IC50 (ACHN cells): ≤ 0.5 µM
- IC50 (MDA-MB-361 cells): ≤ 0.5 µM
- IC50 (MDA-MB-231 cells): ≤ 0.5 µM
- IC50 (786-O cells): ≤ 0.5 µM
- IC50 (HCT116 cells): ≥ 5 µM
- IC50 (NCI-H1975 cells): ≤ 0.5 µM
- IC50 (Met Wild-type): > 10 µM
- IC50 (Met Y1230C): > 10 µM
- IC50 (Met D1228N): > 10 µM
- IC50 ([2]; Homo sapiens, T47D with Met M1268T, read-out: drug concentration causing 50% reduction of cell density): > 0.5 µM
- IC50 (T47D cells with wt Met; Homo sapiens, T47D with wt Met, read-out: drug concentration causing 50% reduction of cell density): > 0.5 µM
- IC50 ([3]; Homo sapiens, T47D with Met Y1235D, read-out: drug concentration causing 50% reduction of cell density): > 0.5 µM
- tumor volume [4]: large tumors in the cecum and peritoneum

From PMC5129993, “Everolimus induces Met inactivation by disrupting the FKBP12/Met complex” (Oncotarget, 2016)
